Test results published in patent US20060281711A1, “IL-12 modulatory compounds” (Synta Pharmaceuticals Corp., priority 2005, published 2006).

System: IL-12
Assay: Human in vitro assay: inhibition of IL-12 production in stimulated human PBMC or THP-1 cells (ELISA)
Assay type: cell-based
Details: read-out: IC50 Range (in vitro IC50 for IL-12)
Description: The biological activities of a compound of the invention can be evaluated by a number of cell-based assays. One of such assays can be conducted using cells from human peripheral blood mononuclear cells (PBMC) or human monocytic cell line (THP-1). The cells are stimulated with a combination of human interferon-γ (IFNγ) and lipopolysaccharide or a combination of IFNγ and Staphylococcus aureus Cowan I in the presence of a test compound. The level of inhibition of IL-12 production can be measured by determining the amount of p70 by using a sandwich ELISA assay with anti-human IL-12 antibodies. IC50 of the test compound can then be determined. Specifically, PBMC or THP-1 cells are incubated with the test compound. Cell viability was assessed using the bioreduction of MTS [3-(4,5-dimethylthiazol-2-yl)-5-(3-carboxymethoxyphenyl)-2-(4-sulfophenyl)-2H-tetrazolium] (Promega, Madison, Wis.).
8. Reagents. Staphylococcus aureus Cowan I (SAC) was obtained from Calbiochem (La Jolla, Calif.), and lipopolysaccharide (LPS, Serratia marscencens) was obtained from Sigma (St. Louis, Mo.). Human and mouse recombinant IFNγ were purchased from Boehringer Mannheim (Mannheim, Germany) and Pharmingen (San Diego, Calif.), respectively.
9. Human In Vitro Assay. Human PBMC were isolated by centrifugation using Ficoll-Paque (Pharmacia Biotech, Uppsala, Sweden) and prepared in RPMI medium supplemented with 10% fetal calf serum (FCS), 100 U/mL penicillin, and 100 μg/mL streptomycin. PBMC were plated in wells of a 96-well plate at a concentration of 5×10^5 cells/well, and primed by adding IFNγ (30 U/mL) for 22 h and stimulated by adding LPS (1 μg/mL), or by adding IFNγ (100 U/mL) and then stimulated by adding SAC (0.01%). A test pyrimidine compound was dissolved in DMSO, and added to wells of the 96-well plate. The final DMSO concentration was adjusted to 0.25% in all cultures, including the compound-free control. Human THP-1 cells were plated in wells, primed by adding IFNγ (100 U/mL) for 22 h and stimulated by adding SAC (0.025%) in the presence of different concentrations of the pyrimidine compound. Cell-free supernatants were taken 18 h later for measurement of cytokines. Cell viability was assessed using the bioreduction of MTS. Cell survival was estimated by determining the ratio of the absorbance in compound-treated groups versus compound-free control.
10. The supernatant was assayed for the amount of […], IL-12p70, or IL-10 by using a sandwich ELISA with anti-human antibodies, i.e., a Human IL-12 p40 ELISA kit from R&D Systems (Berkeley, Calif.), and a Human IL-12 p70 or IL-10 ELISA kit from Endogen (Cambridge, Mass.). Assays were based on the manufacturer's instructions.
The biological activities of compounds of the invention were tested on human PBMC or THP-1 cells.

Row | Compound | IC50
1 | Cc1ccc2c(c1)/C(=N/Nc1cc(N3CCOCC3)nc(OCCN3CCOCC3)n1)C(=O)N2 [Compound 1, 5-methyl-3-{[6-morpholin-4-yl-2-(2-morpholin-4-yl-ethoxy)-pyrimidin-4-yl]-hydrazono}-1,3-dihydro-indol-2-one] | < 1000 nM
2 | c1ccc2c(c1)CC/C2=N\Nc1cc(N2CCOCC2)nc(OCCN2CCOCC2)n1 [Compound 4, N-(Indan-1-ylidene)-N′-[6-morpholin-4-yl-2-(2-morpholin-4-yl-ethoxy)-pyrimidin-4-yl]-hydrazine] | ≥ 1000 nM
3 | c1ccc2c(c1)OC/C2=N\Nc1cc(N2CCOCC2)nc(OCCN2CCOCC2)n1 [Compound 5, N-(Benzofuran-3-ylidene)-N′-[6-morpholin-4-yl-2-(2-morpholin-4-yl-ethoxy)-pyrimidin-4-yl]-hydrazine] | ≥ 1000 nM
4 | CC1C/C(=N/Nc2cc(N3CCOCC3)nc(OCCN3CCOCC3)n2)c2ccccc21 (stereo not shown) [Compound 6, N-(3-Methyl-indan-1-ylidene)-N′-[6-morpholin-4-yl-2-(2-morpholin-4-yl-ethoxy)-pyrimidin-4-yl]-hydrazine] | ≥ 1000 nM
5 | Cc1cccc2c1CC/C2=N\Nc1cc(N2CCOCC2)nc(OCCN2CCOCC2)n1 [Compound 7, N-(4-Methyl-indan-1-ylidene)-N′-[6-morpholin-4-yl-2-(2-morpholin-4-yl-ethoxy)-pyrimidin-4-yl]-hydrazine] | ≥ 1000 nM
6 | COc1ccc2c(c1)CC/C2=N\Nc1cc(N2CCOCC2)nc(OCCN2CCOCC2)n1 [Compound 8, N-(5-Methoxy-indan-1-ylidene)-N′-[6-morpholin-4-yl-2-(2-morpholin-4-yl-ethoxy)-pyrimidin-4-yl]-hydrazine] | ≥ 1000 nM
7 | c1ccc2c(c1)CC(=NNc1cc(N3CCOCC3)nc(OCCN3CCOCC3)n1)C2 [Compound 10, N-(Indan-2-ylidene)-N′-[6-morpholin-4-yl-2-(2-morpholin-4-yl-ethoxy)-pyrimidin-4-yl]-hydrazine] | ≥ 1000 nM
8 | c1ccc2c(c1)CCC/C2=N\Nc1cc(N2CCOCC2)nc(OCCN2CCOCC2)n1 [Compound 11, N-(3,4-Dihydro-2H-naphthalen-1-ylidene)-N′-[6-morpholin-4-yl-2-(2-morpholin-4-yl-ethoxy)-pyrimidin-4-yl]-hydrazine] | ≥ 1000 nM
9 | c1ccc2c(c1)OCC/C2=N\Nc1cc(N2CCOCC2)nc(OCCN2CCOCC2)n1 [Compound 12, N-(Chroman-4-ylidene)-N′-[6-morpholin-4-yl-2-(2-morpholin-4-yl-ethoxy)-pyrimidin-4-yl]-hydrazine] | ≥ 1000 nM
10 | COc1ccc2c(c1)CCC/C2=N\Nc1cc(N2CCOCC2)nc(OCCN2CCOCC2)n1 [Compound 13, N-(6-Methoxy-3,4-dihydro-2H-naphthalen-1-ylidene)-N′-[6-morpholin-4-yl-2-(2-morpholin-4-yl-ethoxy)-pyrimidin-4-yl]-hydrazine] | < 1000 nM
11 | COc1ccc2c(c1)/C(=N/Nc1cc(N3CCOCC3)nc(OCCN3CCOCC3)n1)CCC2 [Compound 14, N-(7-Methoxy-3,4-dihydro-2H-naphthalen-1-ylidene)-N′-[6-morpholin-4-yl-2-(2-morpholin-4-yl-ethoxy)-pyrimidin-4-yl]-hydrazine] | < 1000 nM
12 | O=[N+]([O-])c1ccc2c(c1)/C(=N/Nc1cc(N3CCOCC3)nc(OCCN3CCOCC3)n1)CCC2 [Compound 15, N-(7-Nitro-3,4-dihydro-2H-naphthalen-1-ylidene)-N′-[6-morpholin-4-yl-2-(2-morpholin-4-yl-ethoxy)-pyrimidin-4-yl]-hydrazine] | < 1000 nM
13 | Oc1ccc2c(c1)CCC/C2=N\Nc1cc(N2CCOCC2)nc(OCCN2CCOCC2)n1 [Compound 16, N-(6-Hydroxy-3,4-dihydro-2H-naphthalen-1-ylidene)-N′-[6-morpholin-4-yl-2-(2-morpholin-4-yl-ethoxy)-pyrimidin-4-yl]-hydrazine] | < 1000 nM
14 | Cc1cc(C)c2c(c1)/C(=N/Nc1cc(N3CCOCC3)nc(OCCN3CCOCC3)n1)CCC2 [Compound 17, N-(5,7-Dimethyl-3,4-dihydro-2H-naphthalen-1-ylidene)-N′-[6-morpholin-4-yl-2-(2-morpholin-4-yl-ethoxy)-pyrimidin-4-yl]-hydrazine] | < 1000 nM
15 | CC1CC/C(=N\Nc2cc(N3CCOCC3)nc(OCCN3CCOCC3)n2)c2ccccc21 (stereo not shown) [Compound 19, N-(4-Methyl-3,4-dihydro-2H-naphthalen-1-ylidene)-N′-[6-morpholin-4-yl-2-(2-morpholin-4-yl-ethoxy)-pyrimidin-4-yl]-hydrazine] | ≥ 1000 nM
16 | CN1C(=O)/C(=N/Nc2cc(N3CCOCC3)nc(OCCN3CCOCC3)n2)c2ccccc21 [Compound 20, 1-Methyl-3-{[6-morpholin-4-yl-2-(2-morpholin-4-yl-ethoxy)-pyrimidin-4-yl]-hydrazono}-1,3-dihydro-indol-2-one] | ≥ 1000 nM
17 | O=C1OCCN1CCOc1nc(N/N=C2\CCCc3cc(O)ccc32)cc(N2CCOCC2)n1 [Compound 22, 3-(2-{4-[N′-(6-Hydroxy-3,4-dihydro-2H-naphthalen-1-ylidene)-hydrazino]-6-morpholin-4-yl-pyrimidin-2-yloxy}-ethyl)-oxazolidin-2-one] | < 1000 nM
18 | CC(C)(O)CCc1nc(N/N=C2\CCCc3cc(O)ccc32)cc(N2CCOCC2)n1 [Compound 24, 5-{[2-(3-Hydroxy-3-methyl-butyl)-6-morpholin-4-yl-pyrimidin-4-yl]-hydrazono}-5,6,7,8-tetrahydro-naphthalen-2-ol] | ≥ 1000 nM
19 | Clc1ccc2c(c1)/C(=N/Nc1cc(N3CCOCC3)nc(OCCN3CCOCC3)n1)CCS2 [Compound 37, N-(6-Chloro-thiochroman-4-ylidene)-N′-[6-morpholin-4-yl-2-(2-morpholin-4-yl-ethoxy)-pyrimidin-4-yl]-hydrazine] | < 1000 nM
20 | O=S1(=O)CC/C(=N\Nc2cc(N3CCOCC3)nc(OCCN3CCOCC3)n2)c2cc(Cl)ccc21 [Compound 38, N-(6-Chloro-1,1-dioxo-1λ^6-thiochroman-4-ylidene)-N′-[6-morpholin-4-yl-2-(2-morpholin-4-yl-ethoxy)-pyrimidin-4-yl]-hydrazine] | ≥ 1000 nM
21 | Cc1ccc2occ/c(=N\Nc3cc(N4CCOCC4)nc(OCCN4CCOCC4)n3)c2c1 [Compound 39, N-(6-Methyl-chromen-4-ylidene)-N′-[6-morpholin-4-yl-2-(2-morpholin-4-yl-ethoxy)-pyrimidin-4-yl]-hydrazine] | < 1000 nM
22 | c1cc2c(o1)CCC/C2=N\Nc1cc(N2CCOCC2)nc(OCCN2CCOCC2)n1 [Compound 41, N-(6,7-Dihydro-5H-benzofuran-4-ylidene)-N′-[6-morpholin-4-yl-2-(morpholin-4-yl-ethoxy)-pyrimidin-4-yl]-hydrazine] | ≥ 1000 nM
